Where a chain is given by its changes, count along the chain named. Where “and” joins values, the source holds several entries; their conditions need not be identical. Equal values may be shown once.
Legend:
CYP2B6dH [1] = target: T1, CYP2B6dH (Homo sapiens, UniProt P20813); test: Spectral binding; conditions: for Type of difference spectrum induced: CYP2B6dH and K262R, peak ~388 nm, trough ~420 nm; for ΔAmax (CYP2B6dH): difference spectra, 1 μM P450
T1 sequence (P20813 with tags, fused parts or gaps limits assumed): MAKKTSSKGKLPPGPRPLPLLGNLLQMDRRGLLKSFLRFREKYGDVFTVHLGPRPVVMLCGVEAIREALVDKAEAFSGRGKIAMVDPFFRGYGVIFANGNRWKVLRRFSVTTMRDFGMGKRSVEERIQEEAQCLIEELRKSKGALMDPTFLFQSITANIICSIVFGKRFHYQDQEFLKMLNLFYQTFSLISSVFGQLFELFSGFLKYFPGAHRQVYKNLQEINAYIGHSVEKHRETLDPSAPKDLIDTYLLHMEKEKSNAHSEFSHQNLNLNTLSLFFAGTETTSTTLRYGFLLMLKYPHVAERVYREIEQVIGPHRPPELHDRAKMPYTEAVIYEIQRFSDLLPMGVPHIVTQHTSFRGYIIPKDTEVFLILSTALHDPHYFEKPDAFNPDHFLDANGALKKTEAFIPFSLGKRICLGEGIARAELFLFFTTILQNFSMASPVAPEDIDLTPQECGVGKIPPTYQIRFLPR

K262R [2] = tested on: K262R; design: species or system human
K262R (2B6*4) [3] = target: T2, K262R (2B6*4) (Homo sapiens, UniProt P20813, K262R); test: 7-MFC O-deethylation inhibition in standard reconstitution system; conditions: for Increase in Ki, K262R compared with CYP2B6dH: 7-MFC O-deethylation
T2 sequence (P20813 with tags, fused parts or gaps K262R limits assumed): T1 sequence (P20813 with tags, fused parts or gaps limits assumed) with K243R

K262R (2B6*4) [4] = target: T2, K262R (2B6*4); test: Spectral binding; conditions: for ΔAmax (K262R): difference spectra, 1 μM P450; for Higher Ks, K262R compared with CYP2B6dH / ΔAmax, K262R compared with wild-type: spectral binding
[5] = read-out: Estimated in vivo Cmax; plasma, normal population; used as [I]; ref www.mentalhealth.com, www.medscape.com, www.pharmgkb.org, Burgess and Bodey, 1972, Goodwin and Drew, 2007; cited from earlier work
Q172H/K262R (2B6*6) [6] = target: T3, Q172H/K262R (2B6*6) (Homo sapiens, UniProt P20813, K262R/Q172H); test: 7-MFC O-deethylation inhibition in standard reconstitution system; conditions: for Increase in Ki, Q172H/K262R compared with CYP2B6dH: 7-MFC O-deethylation; for Ki: Ki (Q172H/K262R), 7-MFC 25, 50, 100, 150 μM, global fit, duplicate
T3 sequence (P20813 with tags, fused parts or gaps Q172H/K262R limits assumed): T1 sequence (P20813 with tags, fused parts or gaps limits assumed) with Q153H, K243R

CYP2B6dH [7] = target: T1, CYP2B6dH; conditions: for Predicted inhibition of efavirenz metabolism (CYP2B6dH): in vivo prediction; for Predicted in vivo % activity (CYP2B6dH): remaining efavirenz metabolism relative to no inhibitor
K262R [8] = conditions: in contrast to CYP2B6dH, ref Bumpus et al., 2005, 2006; cited from earlier work
K262R [9] = conditions: bupropion to hydroxybupropion; ref Bumpus et al., 2005; cited from earlier work
2B6*1/*4 genotype = conditions: individuals with 2B6*1/*4 genotype, single dose; ref Kirchheiner at al., 2003; cited from earlier work
*1/*4 heterozygotes = conditions: ref Rotger et al., 2007; cited from earlier work
K262R [10] = conditions: ref Bumpus et al., 2006, cited from earlier work
CYP2B6dH [11] = target: T1, CYP2B6dH; conditions: ref Bumpus et al., 2006, cited from earlier work
K262R [12] = assay type: biochemical, human; conditions: type II inhibitors; Supporting table 1
CYP2B6dH [13] = target: T1, CYP2B6dH; test: 7-MFC O-deethylation inhibition in standard reconstitution system; conditions: pH 7.4
CYP2B6dH [14] = target: T1, CYP2B6dH
Q172H/K262R (2B6*6) [15] = target: T3, Q172H/K262R (2B6*6)
[16] = target: T4, CYP2B6 Q172H/K262R (2B6*6) (Homo sapiens, UniProt P20813, K262R/Q172H); test: 7-MFC O-deethylation inhibition in standard reconstitution system; conditions: human, pH 7.4
T4 sequence (P20813 with tags, fused parts or gaps Q172H/K262R limits assumed): T1 sequence (P20813 with tags, fused parts or gaps limits assumed) with Q153H, K243R

CYP2B6 K262R (2B6*4) = target: T5, CYP2B6 K262R (2B6*4) (Homo sapiens, UniProt P20813, K262R); test: as above; conditions: human, pH 7.4
T5 sequence (P20813 with tags, fused parts or gaps K262R limits assumed): T1 sequence (P20813 with tags, fused parts or gaps limits assumed) with K243R

Clc1ccccc1CN1CCc2sccc2C1 [Ticlopidine, ticlopidine]
Type of difference spectrum induced (CYP2B6dH [1]): type I | ΔAmax (CYP2B6dH) (CYP2B6dH [1]): 0.023 ± 0.001 | Predicted in vivo activity (K262R) (K262R [2]): 0.47 (13) min^−1 | Increase in Ki, K262R compared with CYP2B6dH (K262R (2B6*4) [3]): similar | ΔAmax (K262R) (K262R (2B6*4) [4]): 0.025 ± 0.001 | Higher Ks, K262R compared with CYP2B6dH (K262R (2B6*4) [4]): No significant changes | ΔAmax, K262R compared with wild-type (K262R (2B6*4) [4]): similar | Cmax [5]: 1600 nM

CN[C@H]1CC[C@@H](c2ccc(Cl)c(Cl)c2)c2ccccc21 [Sertraline, sertraline]
Kd (CYP2B6dH [1]): 0.51 ± 0.16 µM | Type of difference spectrum induced (CYP2B6dH [1]): type I | ΔAmax (CYP2B6dH) (CYP2B6dH [1]): 0.008 ± 0.0005 | Increase in Ki, Q172H/K262R compared with CYP2B6dH (Q172H/K262R (2B6*6) [6]): > 6 fold and > 7 fold | Ki (Q172H/K262R (2B6*6) [6]): 2.2 µM and 2.16 µM | Increase in Ki, K262R compared with CYP2B6dH (K262R (2B6*4) [3]): ~ 6 fold and 6 fold | Kd (K262R (2B6*4) [4]): 2.06 ± 0.61 µM | ΔAmax (K262R) (K262R (2B6*4) [4]): 0.02 ± 0.002 | Higher Ks, K262R compared with CYP2B6dH (K262R (2B6*4) [4]): 4 fold | ΔAmax, K262R compared with wild-type (K262R (2B6*4) [4]): 3 fold | Cmax [5]: 620 nM | Predicted inhibition of efavirenz metabolism (CYP2B6dH) (CYP2B6dH [7]): 52%

Clc1ccccc1C(c1ccccc1)(c1ccccc1)n1ccnc1 [Clotrimazole, clotrimazole]
Increase in Ki, K262R compared with CYP2B6dH (K262R (2B6*4) [3]): similar | Cmax [5]: 3700 nM | Predicted in vivo % activity (CYP2B6dH) (CYP2B6dH [7]): 6%

COC(=O)[C@H](c1ccccc1Cl)N1CCc2sccc2C1 [Clopidogrel, clopidogrel]
Kd (CYP2B6dH [1]): 0.16 ± 0.11 µM | Type of difference spectrum induced (CYP2B6dH [1]): type I | ΔAmax (CYP2B6dH) (CYP2B6dH [1]): 0.026 ± 0.002 | Predicted in vivo activity (K262R) (K262R [2]): 0.27 (7.6) min^−1 | Increase in Ki, Q172H/K262R compared with CYP2B6dH (Q172H/K262R (2B6*6) [6]; listed as clopidogrel): > 6 fold and 6 fold | Ki (Q172H/K262R (2B6*6) [6]): 0.6 µM and 0.59 µM and 0.63 µM | Increase in Ki, K262R compared with CYP2B6dH (K262R (2B6*4) [3]): 4 fold | Increase in Ki, K262R compared with CYP2B6dH (K262R (2B6*4) [3]; listed as clopidogrel): > 3 fold | Kd (K262R (2B6*4) [4]): 0.33 ± 0.14 µM | ΔAmax (K262R) (K262R (2B6*4) [4]): 0.030 ± 0.002 | ΔAmax, K262R compared with wild-type (K262R (2B6*4) [4]): similar | Cmax [5]: 9300 nM

O=C1Nc2c(O)cc(Cl)cc2[C@@](C#CC2CC2)(C(F)(F)F)O1 [8-hydroxyefavirenz]
Susceptibility of K262R to mechanism-based inactivation (K262R [8]): preserved

CC(NC(C)(C)C)C(=O)c1cccc(Cl)c1 (stereo not drawn) [bupropion]
Increased kcat, K262R compared with CYP2B6dH (K262R [9]): > 2 fold | Increased clearance (2B6*1/*4 genotype): 1.3 fold

CCC(C)n1ncn(-c2ccc(N3CCN(c4ccc(OCC5COC(Cn6cncn6)(c6ccc(Cl)cc6Cl)O5)cc4)CC3)cc2)c1=O (stereo not drawn) [Itraconazole, itraconazole]
Kd (CYP2B6dH [1]): 0.07 ± 0.13 µM | Type of difference spectrum induced (CYP2B6dH [1]): type I | ΔAmax (CYP2B6dH) (CYP2B6dH [1]): 0.022 ± 0.003 | Predicted inhibition of efavirenz metabolism (K262R) (K262R [2]; in vivo prediction): 20% | Increase in Ki, K262R compared with CYP2B6dH (K262R (2B6*4) [3]): > 3 fold | Kd (K262R (2B6*4) [4]): 1.73 ± 0.44 µM | ΔAmax (K262R) (K262R (2B6*4) [4]): 0.021 ± 0.002 | Higher Ks, K262R compared with CYP2B6dH (K262R (2B6*4) [4]): > 20 fold and ~20 fold | ΔAmax, K262R compared with wild-type (K262R (2B6*4) [4]): similar | Cmax [5]: 1900 nM | Predicted inhibition of efavirenz metabolism (CYP2B6dH) (CYP2B6dH [7]): 43%

C#C[C@]1(O)CC[C@H]2[C@@H]3CCc4cc(O)ccc4[C@H]3CC[C@@]21C [17α-ethynylestradiol]
Susceptibility of K262R to mechanism-based inactivation (K262R [8]): refractory

O=C1Nc2ccc(Cl)cc2[C@@](C#CC2CC2)(C(F)(F)F)O1 [efavirenz]
Reduced area under plasma concentration (AUC) (*1/*4 heterozygotes): 17% | Susceptibility of K262R to mechanism-based inactivation (K262R [8]): refractory | Increased catalytic efficiency, K262R compared with CYP2B6dH (K262R [10]; efavirenz to 8-hydroxyefavirenz): ~ 2 fold | Km (K262R [10]; read-out: Km for efavirenz hydroxylation (K262R)): 15.9 µM | kcat for efavirenz hydroxylation (K262R) (K262R [10]): 0.132 s⁻¹ | Km (CYP2B6dH [11]; read-out: Km for efavirenz hydroxylation (CYP2B6dH)): 14.3 µM | kcat for efavirenz hydroxylation (CYP2B6dH) (CYP2B6dH [11]): 0.0717 s⁻¹

c1ccc(-c2ccc(Cn3ccnc3)cc2)cc1 [1-(4-phenyl)benzylimidazole]
Lower IC50, K262R compared with CYP2B6dH (K262R [12]): ~ 2 fold and 2 fold

O=[N+]([O-])c1ccc(Cc2ccncc2)cc1 [4-(4-nitrobenzyl)pyridine]
Lower IC50, K262R compared with CYP2B6dH (K262R [12]): ~ 2 fold and 2 fold

O=C(c1ccc(OCCN2CCCCC2)cc1)c1c(-c2ccc(O)cc2)sc2cc(O)ccc12 [Raloxifene, raloxifene]
Cmax [5]: 3 nM | Predicted in vivo % activity (CYP2B6dH) (CYP2B6dH [7]): would not alter

CC(C)=CCC/C(C)=C/COc1c2ccoc2cc2oc(=O)ccc12 [bergamottin]
Susceptibility of K262R to mechanism-based inactivation (K262R [8]): preserved

c1ccc(-c2ccncc2)cc1 [4-(phenyl)pyridine]
Lower IC50, K262R compared with CYP2B6dH (K262R [12]): 10 fold

COc1ccc2c(C(F)(F)F)cc(=O)oc2c1 [7-MFC, 7-Methoxy-4-(trifluoromethyl) coumarin]
Km at 5 min (CYP2B6dH [13]): 5.1 µM | kcat for 7-MFC oxidation (CYP2B6dH) (CYP2B6dH [14]): 0.0633 s⁻¹ | Km higher, Q172H/K262R vs CYP2B6dH or K262R (Q172H/K262R (2B6*6) [15]): ~ 10 fold | kcat lower, Q172H/K262R vs CYP2B6dH or K262R (Q172H/K262R (2B6*6) [15]): > 2 fold | Km at 5 min [16]: 49 µM | kcat for 7-MFC oxidation (Q172H/K262R) (Q172H/K262R (2B6*6) [6]): 0.0217 s⁻¹ | Km at 5 min (CYP2B6 K262R (2B6*4)): 5 µM | kcat for 7-MFC oxidation (K262R) (K262R (2B6*4) [3]): 0.0817 s⁻¹

S=P(N1CC1)(N1CC1)N1CC1 [N,N′,N″-triethylenethiophosphoramide]
Susceptibility of K262R to mechanism-based inactivation (K262R [8]): preserved

Source: publication PMC2649788 (Drug metabolism and disposition: the biological fate of …, 2008)
